Measured values: PubChem BioAssay (NCI)
Values joined by “and” are separate entries in the source; they are usually repeats but may differ in a detail not shown here. Equal entries are not always repeated.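 Where inhibition never reached the appropriate level, the endpoint shown equals the highest concentration tested. Otherwise, values were interpolated linearly from a five-concentration, 48-hour dose response in 96-well plates. GI50 = concentration required for 50% inhibition of growth. The concentration for full growth arrest is given as TGI.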

Columns and labels:
Experiment in all cases: NCI-60 cell line screen, 48 h
IGROV1 ovarian = tested on: IGROV1 ovarian
HOP-92 NSCLC = tested on: HOP-92 NSCLC
A498 renal = tested on: A498 renal
SK-MEL-5 melanoma = tested on: SK-MEL-5 melanoma
MDA-MB-435 = tested on: MDA-MB-435
NCI-H226 lung = tested on: NCI-H226 lung
HOP-62 NSCLC = tested on: HOP-62 NSCLC
SN12C renal = tested on: SN12C renal
OVCAR-4 ovarian = tested on: OVCAR-4 ovarian
HT29 colon = tested on: HT29 colon

Row | SMILES | GI50 (IGROV1 ovarian) [µM] | TGI (IGROV1 ovarian) | GI50 (HOP-92 NSCLC) [µM] | TGI (HOP-92 NSCLC) | GI50 (A498 renal) | TGI (A498 renal) | GI50 (SK-MEL-5 melanoma) [µM] | TGI (SK-MEL-5 melanoma) | GI50 (MDA-MB-435) | TGI (MDA-MB-435) | GI50 (NCI-H226 lung) [µM] | TGI (NCI-H226 lung) | GI50 (HOP-62 NSCLC) [µM] | TGI (HOP-62 NSCLC) | GI50 (SN12C renal) [µM] | TGI (SN12C renal) | GI50 (OVCAR-4 ovarian) [µM] | TGI (OVCAR-4 ovarian) | GI50 (HT29 colon) [µM] | TGI (HT29 colon)
1 | CC1=C2C(=CC(C)(C)[C@@H]2O)C(=O)[C@](C)(O)C12CC2 | 0.0231 | 0.105 µM and 0.0698 µM | 0.0268 | 0.0887 µM and 0.0712 µM | 0.0183 µM and 0.0108 µM | 0.0499 µM and 0.0553 µM | 0.0159 | 0.0358 µM and 0.0269 µM | 0.025 µM and 0.0147 µM | 0.0706 µM and 0.0319 µM | 0.0709 | 0.232 µM and 0.171 µM | 0.0233 | 0.1 µM and 0.0872 µM | 0.0387 | 0.216 µM and 0.184 µM | 0.0147 | 0.201 µM and 0.0458 µM | 0.00623 | 0.208 µM and 0.0713 µM
2 | Cc1cc(C)c2c(n1)sc1c(N)ncnc12 | 19.7 | > 25 µM | 1.43 | > 14 µM | 4.9 µM | > 25 µM | > 25 | > 25 µM | > 25 µM | > 25 µM | 11.9 | > 25 µM | > 25 | > 25 µM | > 22.3 | > 25 µM | > 25 | > 25 µM | 16.2 | > 25 µM
3 | Cn1cccc1-c1cc(-c2ccccc2)[nH]c(=O)c1C#N | > 100 | > 100 µM |  | 0.0283 µM | 25.6 µM | > 100 µM | > 100 | > 100 µM | > 100 µM | > 100 µM | > 100 | > 100 µM | > 100 | > 100 µM | > 100 | > 100 µM | > 100 | > 100 µM | > 100 | > 100 µM
4 | CSc1ncc(Br)c(Sc2nc(N)nc3nc[nH]c23)n1 | 12.9 | 44.2 µM | 0.456 | 5.23 µM | 3.62 µM | 29 µM | 3.12 | 36.1 µM | 2.5 µM | > 100 µM | 2.65 | 29.5 µM | 2.59 | > 100 µM | 3.8 | 36.5 µM | 5.08 | > 100 µM | 4.09 | 60.5 µM
5 | O=C(Nc1ccc(-n2ccc3c(NC(=O)c4ccccc4)ncnc32)cc1)c1cccc(C(F)(F)F)c1 | 5.63 | 27.2 µM | 7.51 | 26 µM | 3.51 µM | 23.2 µM | 0.232 | 15.8 µM | 2.16 µM | 16.3 µM | 6.14 | 26.1 µM | 10.9 | 24.4 µM | 5.27 | 27.9 µM | 4.31 | 31.2 µM | 0.457 | 15.7 µM
6 | C1=C/COCc2cc(ccc2OCCN2CCCC2)Nc2nccc(n2)-c2ccc(o2)COC/1 | 0.626 | 6.57 µM | 2.21 | 9.47 µM | 1.52 µM | 3.57 µM | 1.79 | 4.07 µM | 1.2 µM | 3.73 µM | 1.74 | 6.13 µM | 2.28 | 6.91 µM | 0.99 | 5 µM | 2.33 | 10.4 µM | 1.33 | 7.33 µM
7 | O=C(/C=C/c1ccc(C(F)(F)F)cc1)Nc1ccc(C=C2c3ccccc3C(=O)c3ccccc32)cc1 | 33.2 | > 100 µM | 1.49 | 22.4 µM | 2.6 µM | 52.8 µM | 2.71 | 13.4 µM | 0.64 µM | 2.67 µM | 14.2 | > 100 µM | 11.7 | 51.9 µM | 26.7 | > 100 µM | 5.26 | > 100 µM | 4.56 | > 100 µM
8 | O=c1c2cc(-c3ccccc3)sc2ncn1Cc1ccc(Cl)c(Cl)c1 | 1.93 | 34.9 µM | 16.2 | 40.5 µM | 19.4 µM | 50.3 µM | 34.2 | > 100 µM | 40.6 µM | > 100 µM | 13.1 | 87.2 µM | 10.3 | 24.7 µM | 13.1 | 39.1 µM | 12.5 | 38 µM | 67.7 | > 100 µM
9 | [O-][N+]1(CC[N+]2([O-])CCCCC2)CCCCC1 |  | > 100 µM |  | > 100 µM |  | > 100 µM |  | > 100 µM |  | > 100 µM |  | > 100 µM |  | > 100 µM |  | > 100 µM |  | > 100 µM |  | > 100 µM
10 | NS(=O)(=O)c1ccc(N=Nc2c(O)[nH]c3ccc(C(=O)NCc4ccncc4)cc23)cc1 | > 25 | > 25 µM | > 25 | > 25 µM | > 25 µM | > 25 µM | > 25 | > 25 µM | > 25 µM | > 25 µM | > 25 | > 25 µM | > 25 | > 25 µM | > 25 | > 25 µM | > 25 | > 25 µM | 24.6 | > 25 µM
11 | NC(=O)[C@@H](CC1CC1)[C@@H](CCC(F)(F)F)C(=O)N[C@H]1N=C(c2ccccc2)c2cccc(F)c2NC1=O | 31.7 | > 100 µM | 19.3 | > 100 µM |  |  | 17.7 | 35.1 µM | 66.7 µM | > 100 µM | > 100 | > 100 µM | > 100 | > 100 µM | > 100 | > 100 µM | 54.9 | > 100 µM | > 100 | > 100 µM
12 | CN1CCN(Cc2ccc(NC(=O)c3cncc(C#Cc4cnc(N)cc4C#N)c3)cc2C(F)(F)F)CC1 | 1.16 | 5.62 µM | 0.906 | 4.44 µM | 0.227 µM | 3.67 µM | 2.29 | 7.11 µM | 1.98 µM | 11.7 µM | 0.706 | 11.9 µM | 3.33 | 13.1 µM | 2.46 | 10.7 µM |  |  | 1.04 | 15.5 µM
13 | CCOc1ccc2c(c1)C(=O)c1c-2n(CCCBr)c(=O)c2cc([N+](=O)[O-])ccc12 |  |  | 37.1 | > 100 µM | 36 µM | > 100 µM | 8.74 | 25.7 µM | 30.6 µM | > 100 µM | 5.64 | > 100 µM | 5.81 | > 100 µM | 11.9 | > 100 µM | > 100 | > 100 µM | > 100 | > 100 µM
